Measurements as given in patent US20100210590A1, “COMPOSITIONS AND TREATMENTS FOR SEIZURE-RELATED DISORDERS” (NORTHWESTERN UNIVERSITY, priority 1995, published 2010).
Counter-ions that a name gives are not always drawn.

Columns and labels:
[1] = Solubility (logS experimental, aqueous solubility, DMSO); type: physicochemical
[2] = tested on: KA-induced seizures on P15; assay: Y-maze test of spontaneous alternation after KA-induced early-life seizures; type: in vivo, rat; conditions: Mzc 5 mg/kg ip at 3 and 9 hr after KA on P15; after 30 days recovery; mean±SEM
Description: On either postnatal day (P)15 or 45, rats were administered either KA (Ocean Produce International, Nova Scotia) or equivalent volume of vehicle, phosphate-buffered saline (PBS, pH 7.4) (2). The dose of KA on P 15 (5 mg/kg) and P45 (15 mg/kg) was based on the age-dependent difference in threshold for KA-induced seizures (22). All injections were intraperitoneal (ip).
The Y-maze test of spontaneous alternation was used to evaluate hippocampus-dependent spatial learning (26, 27). Testing began on P27 when animals were first able to decide between the left or right arm of the maze. Testing was performed by a blinded observer on alternate days until P55. Each animal started in the vertical arm of the Y-maze. If the animal selected a different arm on the second run in the maze, it was scored as alternating. The percent alternation over the duration of testing was calculated for each animal.
To determine whether suppression of early cytokine increases would prevent long-term glial activation and improve neurobehavioral outcome after early-life seizures, P15 rats were administered Minozac (Mzc). […] Mzc (5 mg/kg) or diluent (saline) was administered via ip injection at 3 and 9 hr following KA injection on P15 (FIG. 7). Control animals were injected an equal volume of saline (Sal). […]

[3] = tested on: IL-1β; assay: ELISA of hippocampal homogenates after KA-induced seizures on P15: IL-1β; type: in vivo, rat; conditions: Mzc 5 mg/kg ip at 3 and 9 hr after KA on P15; 12 hr recovery; mean±SEM
Description: (§1) Hippocampal homogenates were prepared by sonication in protease inhibitor cocktail (1 μg leupeptin (Sigma, St. Louis, Mo.), 0.001 M 4-dithio-L-threitol (DTT, Sigma), 0.002 M sodium orthovanadate (Sigma) and 0.001 M phenylmethanesulfonyl fluorid (PMSF, FLUKA, Switzerland) in 1 ml PBS). Total protein concentration was measured using commercially available reagents (BCA, Pierce, Rockford, Ill.).
(§2) Levels of IL-1β, IL-6, and TNF-α, were measured in hippocampal homogenates by enzyme linked immunosorbent assay using commercially available plates and reagents (ELISA; MesoScale Discovery, MSD, Gaithersburg, Md.). S100B levels were measured as described (26). Samples were analyzed in duplicates and compared with known concentrations of protein. Plates were analyzed using the SECTOR Imager 2400 (MSD).
(§3) To determine whether suppression of early cytokine increases would prevent long-term glial activation and improve neurobehavioral outcome after early-life seizures, P15 rats were administered Minozac (Mzc). […] Mzc (5 mg/kg) or diluent (saline) was administered via ip injection at 3 and 9 hr following KA injection on P15 (FIG. 7). Control animals were injected an equal volume of saline (Sal). At 12 hr, animals were sacrificed, and tissues were processed for analysis of pro-inflammatory cytokines by ELISA as above.

[4] = tested on: IL-6; assay: ELISA of hippocampal homogenates after KA-induced seizures on P15: IL-6; type: in vivo, rat; conditions: Mzc 5 mg/kg ip at 3 and 9 hr after KA on P15; 12 hr recovery; mean±SEM
Description: as §1, §2, §3

[5] = tested on: TNF-α; assay: ELISA of hippocampal homogenates after KA-induced seizures on P15: TNF-α; type: in vivo, rat; conditions: Mzc 5 mg/kg ip at 3 and 9 hr after KA on P15; 12 hr recovery; mean±SEM
Description: as §1, §2, §3

[6] = tested on: S100B; assay: S100B level in hippocampal homogenates after KA-induced seizures on P15; type: in vivo, rat; conditions: Mzc 5 mg/kg ip at 3 and 9 hr after KA on P15; 12 hr recovery; mean±SEM
Description: as §1, §2, §3

[7] = tested on: GFAP; assay: Immunohistochemical quantification of GFAP immunoreactive cells in hippocampus (glial activation); type: in vivo, rat; conditions: Mzc 5 mg/kg ip at 3 and 9 hr after KA on P15; 30 days recovery; mean±SEM
Description: (§4) Immunohistochemical detection of hippocampal markers of glial activation and astrocyte glutamate transporters was performed in five μm paraffin-embedded sections using Vectastain Elite ABC immunodetection kits and diaminobenzidine substrate (DAB) (Vector Laboratories, Burlingame Calif.). The following primary antibodies were used: GFAP (1:1500, mouse monoclonal, Sigma); S100B (1:1500, rabbit polyclonal, DAKO Cytomation, Carpinteria, Calif.); Ibal (1:400, goat polyclonal, Abcam, Cambridge, Mass.); FH (1:400, goat polyclonal, Quidel); β-clusterin (1:100, goat polyclonal, Santa Cruz); GLAST (1:5000 guinea pig polyclonal, Chemicon International, Temecula, Calif.) and GLT-1 (1:5000, guinea pig polyclonal, Chemicon). Control sections were incubated in normal serum or PBS in place of primary antibody. […]
(§5) Sections were examined under brightfield microscopy by two blinded observers (Nikon Eclipse E800). For GFAP, S100B, Ibal, FH, clusterin, GLAST and GLT-1 sections, the CAI, CA2, CA3, DG and PoDG were photographed at 10× magnification, and images were converted to grayscale for quantification of immunoreactive cells. The percentage of positive cells in the hippocampal regions specified was measured by thresholding for dark objects indicative of immunoreactive cells (Metamorph, Universal Imaging Corporation, Sunnyvale, Calif.). […] Changes in the morphology of immunoreactive cells were not assessed. […]

[8] = tested on: S100B; assay: Immunohistochemical quantification of S100B immunoreactive cells in hippocampus (glial activation); type: in vivo, rat; conditions: Mzc 5 mg/kg ip at 3 and 9 hr after KA on P15; 30 days recovery; mean±SEM
Description: as §4, §5

[9] = tested on: Alzheimer's disease mouse model; conditions: cited from earlier work
[10] = cited from earlier work

Row | Compound | solubility in DMSO [1] | percent alternation in Y-maze [2] [% alternation] | IL-1β level in hippocampal brain homogenates [3] [% control] | IL-6 level in hippocampal brain homogenates [4] [% control] | TNF-α level in hippocampal brain homogenates [5] [% control] | S100B level in hippocampal brain homogenates [6] [% control] | GFAP immunoreactive cells in hippocampus [7] [% immuno-positive cells] | S100B immunoreactive cells in hippocampus [8] [% immuno-positive cells] | effect on hippocampal pro-inflammatory cytokine upregulation [9] | effect on hippocampal-dependent behavioral deficits [9] | effect on synaptic dysfunction [9] | CNS penetration [10] | bioavailability [10] | toxicity [10] | water solubility [10]
1 | Cc1cc(-c2ccccc2)nnc1N1CCN(c2ncccn2)CC1.Cl.Cl [2-(4-(4-methyl-6-phenylpyridazin-3-yl)piperazin-1-yl)pyrimidine dihydrochloride salt] | soluble in DMSO |  |  |  |  |  |  |  |  |  |  |  |  |  | 
2 | Cc1cc(-c2ccccc2)nnc1N1CCN(c2ncccn2)CC1 [Mzc, 2-(4-(4-methyl-6-phenylpyridazin-3-yl)piperazin-1-yl)pyrimidine dihydrochloride monohydrate] |  | 79.5±2.5 | 103.7±4.6 | 103.2±3.8 | 98.5±3.9 | 89.1±9.7 | 20.9±1.8 | 8.1±0.9 | inhibits hippocampal pro-inflammatory cytokine upregulation | attenuates hippocampal-dependent behavioral deficits | suppresses synaptic dysfunction | CNS-penetrant | bioavailable | non-toxic | water-soluble
